Reference: patent US20230407249A1, “Media and methods for establishing and maintaining early embryo-like cells” (BGI SHENZHEN GROUP HOLDINGS CO., LIMITED, priority 2020, published 2023)

Legend:
primed human PSCs = assay: Conversion of primed human PSCs to ICLCs (ICM marker expression, colony morphology); format: cell-based
Protocol: One day before initiation of conversion, primed human PSCs were washed with PBS once and dissociated into single cells and plated at a density of 1,000 to 1,500 cells/cm^2 on feeder in mTeSR1 or E8 medium supplemented with 10 μM Y27632. Twenty-four hours later, culture medium was switched to 4CL medium 1. The culture medium was refreshed with the same medium every 24 hours. Colonies became round and domed-shape in 24 to 48 hours. Cells were passaged every 3 to 4 days. For passaging, cells were dissociated into single cells using TrypLE: 0.5 mM EDTA (1:1) and plated at a density of 1,000 to 1,500 cells/cm^2 on feeder (feeders were seeded on Geltrex™/Matrigel™ pre-treated plate) (FIG. 1). The ICLCs induction and maintenance can be conducted under hypoxic condition (37° C., 5% CO2, 5% O2), or normoxic condition (37° C., 5% CO2, 21% O2) (FIG. 34), preferably hypoxia condition.
Using the same procedures of example 1, except plating cells on 1% (v/v) Geltrex™ in DMEM-F12 (cat #) coated plates instead of on feeder cells.
Primed human PSCs were cultured following the same procedures of example 1. One day before initiation of the conversion, primed human PSCs were dissociated into single cells and plated 60,000 cells/well in Aggrewell™800 plates using mTeSR1 or E8 medium supplemented with 10 μM Y27632. […]

[1] = test system: primed human PSCs or ICLCs; assay: Conversion of primed human PSCs or ICLCs to 8CLCs (8C marker expression); format: cell-based; settings: CHIR99021 included in e4CL, or IWR1 withdrawn from e4CL
Protocol: Primed human PSCs were cultured following the same procedures of example 1. One day before initiation of the conversion, primed human PSCs were dissociated into single cells and plated at 2,000 to 3,000 cells/cm^2 on feeder using mTeSR1 or E8 medium supplemented with 10 μM Y27632. Twenty-four hours later, culture medium was changed into e4CL medium, cells were cultured in incubator at 37° C., 5% CO2, hypoxic or normoxic condition. Medium was refreshed daily. Cells were passaged every 3 to 4 days. For passaging, cells were dissociated into single cells using TrypLE: 0.5 mM EDTA (1:1), plated at 2,000 to 3,000 cells/cm^2 on feeder coated plates. Generally, cells were converted to 8CLCs in approximately one week. One day before initiation of the conversion, ICLCs were dissociated into single cells and plated at 2,000 to 3,000 cells/cm^2 on feeders using 4CL medium. Twenty-four hours later, culture medium is changed into e4CL medium. Medium was refreshed daily. Cells were converted to 8CLCs in 3 to 5 days without passaging. ICLCs were cultured following the same procedures of example 1. One day before initiation of the conversion, ICLCs were dissociated into single cells and resuspended in 4CL medium at a density of 300,000 cells/ml. The cell suspension was added into flasks for suspension culture (Greiner Bio-One, 658190). […]

SMILES	ICLC formation (primed human PSCs; CHIR99021 included in 4CL, or IWR1 withdrawn from 4CL)	8CLC formation [1]	expression levels of ICM specific genes such as DNMT3L, STELLA, DPPA5, KLF17 (primed human PSCs; final concentration of 40 to 70 μg/ml)
Cc1c[nH]c(-c2cnc(NCCNc3ccc(C#N)cn3)nc2-c2ccc(Cl)cc2Cl)n1 [CHIR99021]	inhibits formation of ICLC	inhibits formation of 8CLC	–
O=C1O[C@H]([C@@H](O)CO)C(O)=C1O [L-ascorbic acid]	–	–	potently increases
